Source: publication PMC12521615, “Accurate affinity models for SH2 domains from peptide binding assays and free‐energy regression” (Protein Science : A Publication of the Protein Society, 2025)
Non-standard residues stand in square brackets, D forms with d. Residues, ends and D or L forms follow the SMILES beside them. pY = N[C@@H](Cc1ccc(OP(=O)(O)O)cc1)C(=O)O

What follows are compounds tested against T1, Fyn SH2 domain (Homo sapiens, UniProt P06241) (assay: biochemical). Conditions: not given.
T1 construct: The human SH2 domains from Fyn (142–248), Lyn (121–228); His6-SUMO (N, cleaved yes); host or cells: Escherichia coli C43(DE3) with BirA helper plasmid
T1 sequence (P06241 142-248): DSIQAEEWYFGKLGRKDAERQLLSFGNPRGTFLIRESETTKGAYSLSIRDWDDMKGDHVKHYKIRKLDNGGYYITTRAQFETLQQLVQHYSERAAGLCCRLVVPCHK
Assay type: binding
Text: The human SH2 domains from Fyn (142–248), Lyn (121–228), Blk (116–222), and Yes (150–257) kinases were PCR‐amplified from plasmids encoding the full‐length proteins and cloned using the NEBuilder® HiFi DNA Assembly Master Mix (NEB) in a pET plasmid backbone that was PCR‐amplified with the primers pETXbaI_for and pETXhoI_rev (these and all other primers are defined in Table S7) from the pET‐His6‐SUMO‐Grb2(SH2), as reported before (Li et al., [2023]), thus adding an N‐terminal His6‐SUMO tag and a C‐terminal AviTag® for biotinylation. The SH2 plasmids are available via Addgene: pET28‐His6‐SUMO‐Fyn‐SH2‐AviTag (214202), pET28‐His6‐SUMO‐Blk‐SH2‐AviTag (214204), pET28‐His6‐SUMO‐Lyn‐SH2‐AviTag (214207), pET28‐His6‐SUMO‐Yes‐SH2‐AviTag (214208), and pET28‐His6‐SUMO‐cSrc‐SH2‐AviTag (214230). For expression and parallel biotinylating of the SH2 domain product, Escherichia coli C43(DE3) cells carrying a BirA encoding helper plasmid were transformed with the respective SH2 domain expression construct and plated to grow overnight at 37°C on a streptomycin and kanamycin (100 μg/mL both) LB‐agar plate. The colonies were collected in 10 mL of TB medium and used to inoculate 1 L of TB medium and grown at 37°C and 215 rpm. Upon reaching an OD600 of 0.5, the expression of the SH2 domains was induced by adding IPTG up to 0.5 mM and biotin up to 250 μM, and the expressing culture was incubated at 18°C for 16–18 h. After removing the medium through centrifugation, the cell pellets were snap‐frozen in liquid N2 and stored at −80°C until purification. To purify the biotinylated SH2 domains, the cell pellets were resuspended in lysis buffer (50 mM Tris, pH 7.5, 300 mM NaCl, 20 mM imidazole, 10% glycerol), supplementing them with 2 mM β‐mercaptoethanol and 1× protease inhibitor cocktail before lysis by sonication (Fisherbrand Sonic Dismembrator). The soluble fraction separated after centrifugation at 33,000 g was run on a HisTrap HP column (Cytiva), then washed with 10 CV of the lysis buffer followed by 10 CV of wash buffer (50 mM Tris, pH 7.5, 50 mM NaCl, 10 mM imidazole, 10% glycerol). Next, the protein was eluted with elution buffer (50 mM Tris, pH 7.5, 50 mM NaCl, 250 mM imidazole, 10% glycerol) directly onto a 5 mL HiTrap Q HP anion exchange column (Cytiva). The biotinylated SH2 domain was then eluted from the anion exchange column with an NaCl gradient (50 mM Tris, pH 7.5, 0.05–1 M NaCl, 1 mM TCEP‐HCl), and the His6‐SUMO tag was cleaved using 0.05 mg/mL Ulp1 protease. The biotinylated SH2 domain was then collected in a flowthrough after running the cleavage reaction over a HisTrap HP column. Finally, the biotinylated SH2 domain in the flowthrough was run on a HiLoad 16/600 Superdex 75 pg size exclusion column (Cytiva) in storage buffer (20 mM HEPES, pH 7.5, 150 mM NaCl, 10% glycerol). The purified biotinylated SH2 domains were aliquoted, snap‐frozen in liquid N2, and stored at −80°C.
Measured binding constants (K D) from competition mode fluorescence polarization experiments were obtained using the purified SH2 domains used for the selection and chosen sets of peptides with a phosphorylated tyrosine exactly as described previously (Li et al., [2023]). […] (c‐Src SH2 consensus) was used as the probe, and for the Grb2 SH2 domain, the fluorescently labeled peptide FITC‐Ahx‐FDDPS(pY)VNVQN (Ahx = 6‐aminohexanoic acid) from the Y177 phospho‐tyrosine site of BCR. Before performing the competition mode fluorescence polarization measurement, the K D of the probes for the respective SH2 domains was first measured in a direct mode of fluorescence polarization.
In the case of `CC[C@H](C)[C@H](NC(=O)[C@@H]1CCCN1C(=O)[C@H](CCC(N)=O)NC(C)=O)C(=O)N[C@@H](Cc1ccccc1)C(=O)N[C@@H](CCC(=O)O)C(=O)NCC(=O)N[C@@H](Cc1ccc(OP(=O)(O)O)cc1)C(=O)N[C@@H](C)C(=O)N[C@@H](CC(C)C)C(=O)N1CCC[C@H]1C(=O)N[C@@H](Cc1c[nH]cn1)C(=O)N[C@@H](C)C(=O)NCC(N)=O` [ACTA1 pY171] (Ac-QPIFEG[pY]ALPHAG-NH2), the Kd is reported as 0.0473 µM. With `CC(=O)N[C@@H](CCC(N)=O)C(=O)N[C@@H](CO)C(=O)N[C@@H](CC(C)C)C(=O)N[C@@H](CCC(=O)O)C(=O)N[C@@H](CCCCN)C(=O)N[C@@H](CO)C(=O)N[C@@H](Cc1ccc(OP(=O)(O)O)cc1)C(=O)N[C@@H](CCC(=O)O)C(=O)N[C@@H](CC(C)C)C(=O)N[C@@H](CC(C)C)C(=O)N[C@@H](CC(=O)O)C(=O)NCC(=O)NCC(N)=O` [ACTB pY240 P243L] (Ac-QSLEKS[pY]ELLDGG-NH2) the Kd was 0.141 µM. `CC[C@H](C)[C@H](NC(=O)CNC(=O)[C@H](CCC(=O)O)NC(=O)[C@@H](NC(=O)[C@H](CCC(N)=O)NC(C)=O)C(C)C)C(=O)N[C@@H](CO)C(=O)N[C@@H](Cc1ccc(OP(=O)(O)O)cc1)C(=O)N[C@@H](CC(=O)O)C(=O)N[C@@H](Cc1ccccc1)C(=O)N[C@H](C(=O)N1CCC[C@H]1C(=O)N[C@H](C(=O)NCC(N)=O)[C@@H](C)O)[C@@H](C)CC` [CBS pY308 G307S] (Ac-QVEGIS[pY]DFIPTG-NH2) was tested, and the Kd was 0.185 µM. For `CC(=O)N[C@@H](CCC(N)=O)C(=O)N[C@@H](CC(C)C)C(=O)N[C@@H](Cc1c[nH]cn1)C(=O)N[C@H](C(=O)N[C@@H](Cc1c[nH]cn1)C(=O)N1CCC[C@H]1C(=O)N[C@@H](Cc1ccc(OP(=O)(O)O)cc1)C(=O)N[C@@H](CCC(=O)O)C(=O)N[C@@H](CCCCN)C(=O)N[C@H](C(=O)N[C@@H](CCC(=O)O)C(=O)N[C@@H](CC(=O)O)C(=O)NCC(N)=O)C(C)C)C(C)C` [Syn-F-1] (Ac-QLHVHP[pY]EKVEDG-NH2), the Kd was 0.0302 µM. `CSCC[C@H](NC(=O)[C@H](CCC(N)=O)NC(C)=O)C(=O)N[C@@H](CCC(=O)O)C(=O)N[C@@H](CCCCN)C(=O)N[C@@H](Cc1c[nH]cn1)C(=O)N[C@H](C(=O)N[C@@H](Cc1ccc(OP(=O)(O)O)cc1)C(=O)N[C@@H](CCC(=O)O)C(=O)N[C@@H](CO)C(=O)N[C@H](C(=O)N[C@H](C(=O)N[C@@H](CCC(N)=O)C(=O)NCC(N)=O)[C@@H](C)O)C(C)C)C(C)C` [Syn-F-2] (Ac-QMEKHV[pY]ESVTQG-NH2) showed a Kd of 0.0183 µM.

Same assay, conditions: Table S3, unpaired validation; competition fluorescence polarization; probe FITC-Ahx-GDG-pY-EEISPLLL-NH2 0.4 nM; [SH2] 4.12 nM; mean; read-out: Kd mean
Work on `CC(=O)N[C@@H](CCC(N)=O)C(=O)N[C@@H](CO)C(=O)N[C@@H](CC(C)C)C(=O)N[C@@H](CCC(=O)O)C(=O)N[C@@H](CCCCN)C(=O)N[C@@H](CO)C(=O)N[C@@H](Cc1ccc(OP(=O)(O)O)cc1)C(=O)N[C@@H](CCC(=O)O)C(=O)N[C@@H](CC(C)C)C(=O)N1CCC[C@H]1C(=O)N[C@@H](CC(=O)O)C(=O)NCC(=O)NCC(N)=O` [ACTB pY240] (Ac-QSLEKS[pY]ELPDGG-NH2) yielded a Kd of 0.159 µM. With `CC[C@H](C)[C@H](NC(=O)CNC(=O)[C@H](CCC(=O)O)NC(=O)[C@@H](NC(=O)[C@H](CCC(N)=O)NC(C)=O)C(C)C)C(=O)NCC(=O)N[C@@H](Cc1ccc(OP(=O)(O)O)cc1)C(=O)N[C@@H](CC(=O)O)C(=O)N[C@@H](Cc1ccccc1)C(=O)N[C@H](C(=O)N1CCC[C@H]1C(=O)N[C@H](C(=O)NCC(N)=O)[C@@H](C)O)[C@@H](C)CC` [CBS pY308] (Ac-QVEGIG[pY]DFIPTG-NH2) the Kd was 0.126 µM. `CC[C@H](C)[C@H](NC(=O)[C@H](CC(C)C)NC(=O)[C@H](CO)NC(=O)[C@H](Cc1ccc(OP(=O)(O)O)cc1)NC(=O)[C@H](CCCNC(=N)N)NC(=O)[C@H](CCCNC(=N)N)NC(=O)[C@H](CCC(N)=O)NC(=O)[C@H](CC(=O)O)NC(=O)[C@H](CO)NC(=O)[C@H](CCC(N)=O)NC(C)=O)C(=O)N[C@@H](CC(=O)O)C(=O)N1CCC[C@H]1C(=O)NCC(N)=O` [CLIP2 pY972 R977P] (Ac-QSDQRR[pY]SLIDPG-NH2) gave a Kd of 0.027 µM. For `CC[C@H](C)[C@H](NC(=O)[C@H](CC(C)C)NC(=O)[C@H](CO)NC(=O)[C@H](Cc1ccc(OP(=O)(O)O)cc1)NC(=O)[C@H](CCCNC(=N)N)NC(=O)[C@H](CCCNC(=N)N)NC(=O)[C@H](CCC(N)=O)NC(=O)[C@H](CC(=O)O)NC(=O)[C@H](CO)NC(=O)[C@H](CCC(N)=O)NC(C)=O)C(=O)N[C@@H](CC(=O)O)C(=O)N[C@@H](CCCNC(=N)N)C(=O)NCC(N)=O` [CLIP2 pY972] (Ac-QSDQRR[pY]SLIDRG-NH2), the Kd was 0.0785 µM.
